The nature of data set [1]: Stability of compound in human plasma at […] measured after 24 hrs by HPLC analysis. The data set is classed as ADME, cell-free.
The target of another data set is T1, Histone deacetylase 11 (Homo sapiens, UniProt Q96DB2).
T1 sequence (Q96DB2 whole entry): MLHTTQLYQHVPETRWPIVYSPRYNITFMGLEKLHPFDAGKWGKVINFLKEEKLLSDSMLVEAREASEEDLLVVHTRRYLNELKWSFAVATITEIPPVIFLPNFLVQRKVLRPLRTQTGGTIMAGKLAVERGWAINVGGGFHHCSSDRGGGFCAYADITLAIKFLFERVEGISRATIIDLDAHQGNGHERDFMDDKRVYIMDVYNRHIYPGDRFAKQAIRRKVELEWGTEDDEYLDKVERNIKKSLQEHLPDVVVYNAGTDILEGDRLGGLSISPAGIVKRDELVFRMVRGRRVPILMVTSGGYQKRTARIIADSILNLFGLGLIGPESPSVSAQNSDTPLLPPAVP
Description: Inhibition of human HDAC11 using Boc-Lys (tri-fluoroacetyl)-AMC as substrate incubated for 1 hr followed by substrate addition and further incubated for 2 hrs by fluorescence assay.

For `CCCNNC(=O)c1ccc(CNC(=O)[C@H](CC(C)C)NC(=O)[C@@H](O)[C@H](N)Cc2ccccc2)cc1.Cl`, the Stability entry in data set [1] was “Stable”. 1.24 µM corresponded to half-maximal inhibition against Histone deacetylase 11 (IC50).

Usually IC50 stands for the concentration that gives 50% inhibition. A low value points to higher potency.

The values are drawn from ChEMBL document CHEMBL5634092, “Design, synthesis, and biological evaluation of novel HDAC/CD13 dual inhibitors for the treatment of cancer” (Eur J Med Chem, 2023).
